Measured values from patent US4950675A, “Pyridine di-mevalono-lactones as inhibitors of cholesterol biosynthesis” (Warner-Lambert Company, priority 1988, dated 1990).
Counter-ions that a name gives are not always drawn.

Legend:
[1] = target: sterol synthesis by rat liver homogenate (HMG-CoA reductase); assay: CSX screen ("CSI" in Table 2): inhibition of sterol synthesis from 14C-acetate in rat liver homogenate; format: biochemical; conditions: 50% inhibition of sterol synthesis over a one-hour period
Method: The ability of compound s of the present invention to inhibit the biosynthesis of cholesterol was measured by a method (designated CSX screen) which utilizes the procedure described by R. E. Dugan, et al, Archiv. Biochem. Biophys., (1972), 152, 21-27. In this method, the level of HMG-CoA enzyme activity in standard laboratory rats is increased by feeding the rats a chow diet containing 5% cholestyramine for four days, after which the rats are sacrificed.
The rat livers are homogenized, and the incorporation of […] into nonsaponifiable lipid by the rat liver homogenate is measured. The micromolar concentration of compound required for 50% inhibition of sterol synthesis over a one-hour period is measured, and expressed as an IC50 value.

cholesterol synthesis = assay: AICS screen: plasma [14C]cholesterol after oral dosing of cholestyramine-fed rats (inhibition of cholesterol synthesis); format: in vivo; conditions: male Sprague-Dawley rats fed 5% cholestyramine; for inhibition at 1 mg/kg: Rattus norvegicus
Method: The ability of compound s of the present invention to inhibit the biosynthesis of cholesterol was also measured by a method (designated AICS screen) which utilizes the procedure described by A. W. Alberts et al, Proc. Natl. Acad. Sci., (1980), 77, pp 3957-3961.
In this method male Sprague-Dawley rats (200 g body weight) previously fed 5% cholestyramine for three days were randomly divided into groups (N=5/group) and given a single dose of vehicle (controls) or compound by an oral gavage at the indicated doses. One hour after drug dosing, all rats were injected intraperitoneally with sodium[1-^14 C]-acetate (18.75 μCi/rat in 0.2 ml saline). After 50 minutes, blood samples were taken, plasma obtained by centrifugation, and plasma [^14 C] cholesterol measured after saponification and extraction.

IC50 [1] [µM] | SMILES | AICS % Inhibition of Cholesterol Synthesis (cholesterol synthesis; Table 2, 1.0 mg/kg, single oral gavage) [%] | inhibition at 1 mg/kg (cholesterol synthesis; Table 1, single oral gavage) [%] | inhibition at 1 mg/kg (cholesterol synthesis; Table 2, single oral gavage) [%]
0.0056 | CC(C)c1nc(C(C)C)c(C=CC(O)CC(O)CC(=O)[O-])c(-c2ccc(F)cc2)c1C=CC(O)CC(O)CC(=O)[O-].[Na+].[Na+] (stereo not drawn) [[R*,S*(E)]-7,7'-[2,6-bis(1-methylethyl)-2,4-(4-fluorophenyl)-3,5-pyridinediyl]bis [3,5-dihydroxy-6-heptenoio acid, disodium salt]] | -21 | – | –
– | CCc1nc(CC)c(/C=C/C2CC(O)CC(=O)O2)c(-c2ccc(F)cc2)c1/C=C/C1CC(O)CC(=O)O1 (stereo not drawn) [6,6'-[2,6-diethyl-4-(4-fluorophenyl)-3,5-pyridinediyl]di[2,1-ethenediyl]bis[4α,6β(E)][tetrahydro-4-hydroxy-2H -pyran-2-one]] | – | -3 | –
0.032 | CCc1nc(CC)c(/C=C/C(O)CC(O)CC(=O)O)c(-c2ccc(F)cc2)c1/C=C/C(O)CC(O)CC(=O)O (stereo not drawn) [[R*,S*(E)]7,7'-[2,6-diethyl-4-(4-fluorophenyl)-3,5-pyridinediyl]bis[3,5-dihydroxy-6-heptenoic acid, disodium salt]] | – | – | -16
– | CC(C)c1nc(C(C)C)c(/C=C/C2CC(O)CC(=O)O2)c(-c2ccc(F)cc2)c1/C=C/C1CC(O)CC(=O)O1 (stereo not drawn) [6,6'-[[2,6-bis(1-methylethyl)-4-(4-fluorophenyl)-3,5-pyridinediyl]di-1,2-ethenediyl]bis [4α,6B(E)] tetrahydro-4-hydroxy-2H-pyran-2-one]] | – | -65 | –
